Test results published in patent publication US8188080B2 (Sanford-Burnham Medical Research Institute, priority 2007, dated 2012).
Read-outs that look alike come from different tables or passages of the source.

Legend:
Cdc25A = target: T1, Cdc25A (Homo sapiens, UniProt P30304); test: PTP-catalyzed hydrolysis of DiFMUP, IC50 determination (Cdc25A); type: biochemical
T1 sequence (P30304 1-524): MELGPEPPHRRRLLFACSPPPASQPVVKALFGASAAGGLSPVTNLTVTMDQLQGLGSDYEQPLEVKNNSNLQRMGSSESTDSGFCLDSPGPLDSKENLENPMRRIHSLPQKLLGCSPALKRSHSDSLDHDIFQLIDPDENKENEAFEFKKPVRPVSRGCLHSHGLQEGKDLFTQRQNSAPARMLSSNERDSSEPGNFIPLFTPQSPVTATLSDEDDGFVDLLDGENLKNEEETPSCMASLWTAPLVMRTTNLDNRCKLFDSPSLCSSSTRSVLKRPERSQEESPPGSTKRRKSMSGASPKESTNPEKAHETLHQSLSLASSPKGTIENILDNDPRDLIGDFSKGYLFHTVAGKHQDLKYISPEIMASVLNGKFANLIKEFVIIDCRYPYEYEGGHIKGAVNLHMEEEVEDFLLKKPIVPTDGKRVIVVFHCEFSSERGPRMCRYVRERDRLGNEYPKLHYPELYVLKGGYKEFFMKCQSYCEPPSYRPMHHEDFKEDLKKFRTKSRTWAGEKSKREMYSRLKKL
Experimental: (§1) The PTP-catalyzed hydrolysis of 6,8-difluoro-4-methylumbelliferyl phosphate (DiFMUP) in the presence of the test compound is assayed at 30° C. in a 60 μL 96 well format reaction system in 0.15 M Bis-Tris, pH 6.0 assay buffer having an ionic strength of 150 mM (adjusted with NaCl) and containing 1 mM dithiotreitol and 5% DMSO. At various concentrations of the compound, the initial rate at fixed DiFMUP concentration (equal to the corresponding Km value for each PTP) was determined using a FLx800 micro plate reader (Bio-Tek Instruments, Inc.), an excitation wave length of 360 nm and measuring the emission of the fluorescent reaction product 6,8-difluoro-7-hydroxy-4-methylcoumarin (DiFMU) at 460 nm. The nonenzymatic hydrolysis of the substrate was corrected by measuring the control without addition of enzyme. The IC50 value was determined by plotting the relative activity versus inhibitor concentrations and fitting to Equation 1 using the software GraphPad Prism™ (GraphPad Software, Inc.).
(§2) [formula] In this case, Vi, is the reaction velocity when the inhibitor concentration is [I], V0 is the reaction velocity with no inhibitor and IC50=Ki+Ki[S]/Km.

HePTP = target: T2, HePTP (Homo sapiens, UniProt P35236); test: PTP-catalyzed hydrolysis of DiFMUP, IC50 determination (HePTP); type: biochemical
T2 sequence (P35236 1-360): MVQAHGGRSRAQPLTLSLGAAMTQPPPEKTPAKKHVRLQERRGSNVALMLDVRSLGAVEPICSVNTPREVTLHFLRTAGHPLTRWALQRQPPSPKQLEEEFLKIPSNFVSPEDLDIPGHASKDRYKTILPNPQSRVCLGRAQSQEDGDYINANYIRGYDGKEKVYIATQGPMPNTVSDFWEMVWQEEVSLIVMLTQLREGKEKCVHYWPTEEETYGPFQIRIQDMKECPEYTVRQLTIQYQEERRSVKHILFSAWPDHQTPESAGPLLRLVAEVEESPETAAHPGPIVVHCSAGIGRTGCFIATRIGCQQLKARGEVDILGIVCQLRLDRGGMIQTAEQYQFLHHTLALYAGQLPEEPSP
Experimental: as §1, §2

[1] = Table II, DiFMUP at Km, pH 6.0, 30° C.

## O=C1/C(=C/c2cn(-c3ccccc3)nc2-c2ccc(OCc3ccc(Cl)cc3)cc2)SC(=S)N1CCS(=O)(=O)O [Compound 10, (Z)-2-[5-({3-[4-(4-chlorobenzyloxy)phenyl]-1-phenyl-1H-pyrazol-4-yl}methylene)-4-oxo-2-thioxothiazolidin-3-yl]ethane sulfonic acid]
Cdc25A
  IC50: 2450 nM
HePTP; [1]
  IC50: 622 nM

## O=C1/C(=C/c2cn(-c3ccccc3)nc2-c2ccc(OCc3ccccc3)cc2)SC(=S)N1CCS(=O)(=O)O [Compound 9]
Cdc25A; [1]
  IC50: 3440 nM
HePTP
  IC50: 1520 nM

## O=C1/C(=C/c2cn(-c3ccccc3)nc2-c2ccc(S(=O)(=O)N3CCOCC3)cc2)SC(=S)N1CCS(=O)(=O)O [Compound 14]
Cdc25A
  IC50: 3370 nM
HePTP
  IC50: 1160 nM
